Values quoted from earlier work, collected in EP1782809A1, “Use of ligands of PPARGamma for inducing foetal lung maturity and the prevention of the respiratory-distress syndrome in premature infants” (Charité-Universitätsmedizin Berlin, priority 2005, dated 2007).
Where two headings read alike, the source gives them in different places.

Legend:
[1] = rabbits; 20 or 75-fold of the maximal recommended human dosage
[2] = not given; remark: listed apart in the source

Row | SMILES | incidence of elevated transaminases (human, in vivo) | teratogenic effect [1] | foetal growth ([2]; late pregnancy, at this dose (20 or 75-fold of human dosage), species not stated in the sentence (rats or rabbits) [26]) | effect on the implantation or embryogenesis ([2]; rats) | teratogenic effect ([2]; rats, 20 or 75-fold of the maximal recommended human dosage) | incidence of elevated transaminases (controlled clinical studies, compared to the placebo group [19])
1 | CCc1ccc(CCOc2ccc(CC3SC(=O)NC3=O)cc2)nc1 (stereo not shown) [pioglitazone] | similar | – | – | – | – | –
2 | CN(CCOc1ccc(CC2SC(=O)NC2=O)cc1)c1ccccn1 (stereo not shown) [rosiglitazone] | – | no teratogenic effect | can slow down the foetal growth | no effect | no teratogenic effect | similar
3 | Cc1c(C)c2c(c(C)c1O)CCC(C)(COc1ccc(CC3SC(=O)NC3=O)cc1)O2 (stereo not shown) [troglitazone] | triplicated | – | – | – | – | –
